# According to PMC5218480 (PLoS ONE, 2017):
# Test system: MV-4-11 cells
# Assay: Gene expression microarray analysis (Affymetrix PrimeView) and GSEA
# Type: cell-based, human
# Set-up: RFU PODN (11730768_x_at) / Fold change /veh PODN (11730768_x_at) / RFU LINC00158 (11744669_a_at) / Fold change /veh LINC00158 (11744669_a_at) / RFU DUSP10 (11751237_a_at) / Fold change /veh DUSP10 (11751237_a_at) / RFU ID3 (11757404_x_at) / Fold change /veh ID3 (11757404_x_at) / RFU PLEKHG5 (11737974_s_at) / Fold change /veh PLEKHG5 (11737974_s_at) / RFU LRRC4B (11730491_at) / Fold change /veh LRRC4B (11730491_at) / RFU GIMAP4 (11747438_a_at) / Fold change /veh GIMAP4 (11747438_a_at) / RFU KRT8 (11758183_x_at) / Fold change /veh KRT8 (11758183_x_at) / RFU CNN1 (11734310_a_at) / Fold change /veh CNN1 (11734310_a_at) / RFU VPS37D (11726825_at) / Fold change /veh VPS37D (11726825_at) / RFU C10orf10 (11716522_x_at) / Fold change /veh C10orf10 (11716522_x_at) / RFU KIR2DL2 /// KIR2DL4 /// KIR2DL5A /// KIR2DL5B /// KIR2DS1 /// KIR2DS2 /// KIR2DS3 /// KIR2DS4 /// KIR3DL3 /// KIR3DL3 /// KIR3DS1 (11738374_at) / Fold change /veh KIR2DL2 /// KIR2DL4 /// KIR2DL5A /// KIR2DL5B /// KIR2DS1 /// KIR2DS2 /// KIR2DS3 /// KIR2DS4 /// KIR3DL3 /// KIR3DL3 /// KIR3DS1 (11738374_at) / RFU C1QL1 (11718748_at) / Fold change /veh C1QL1 (11718748_at) / RFU TMPRSS4 (11747572_a_at) / Fold change /veh TMPRSS4 (11747572_a_at) / RFU HAMP (11756126_x_at) / Fold change /veh HAMP (11756126_x_at) / RFU RNFT2 (11725882_a_at) / Fold change /veh RNFT2 (11725882_a_at) / RFU NR4A2 (11747474_a_at) / Fold change /veh NR4A2 (11747474_a_at) / RFU ABCC12 (11746883_a_at) / Fold change /veh ABCC12 (11746883_a_at) / RFU TMEM136 (11760407_x_at) / Fold change /veh TMEM136 (11760407_x_at) / RFU CLDN22 /// WWC2 (11732394_at) / Fold change /veh CLDN22 /// WWC2 (11732394_at) / RFU HLA-DPB1 (11760878_x_at) / Fold change /veh HLA-DPB1 (11760878_x_at) / RFU SPINT1 (11716480_a_at) / Fold change /veh SPINT1 (11716480_a_at) / RFU GAP43 (11754022_s_at) / Fold change /veh GAP43 (11754022_s_at) / RFU A4GNT (11735810_at) / Fold change /veh A4GNT (11735810_at) / RFU PRB3 (11715151_x_at) / Fold change /veh PRB3 (11715151_x_at) / RFU TUBB4B (11761932_at) / Fold change /veh TUBB4B (11761932_at) / RFU CAPN14 (11732068_a_at) / Fold change /veh CAPN14 (11732068_a_at) / RFU TMCC2 (11721928_a_at) / Fold change /veh TMCC2 (11721928_a_at) / RFU IRGQ (11745062_a_at) / Fold change /veh IRGQ (11745062_a_at) / RFU FAM174B (11720279_a_at) / Fold change /veh FAM174B (11720279_a_at) / RFU TMPRSS4 (11748680_a_at) / Fold change /veh TMPRSS4 (11748680_a_at) / RFU FAM212B (11763350_a_at) / Fold change /veh FAM212B (11763350_a_at) / RFU PLEKHG5 (11743358_a_at) / Fold change /veh PLEKHG5 (11743358_a_at) / RFU ZSCAN30 (11745921_a_at) / Fold change /veh ZSCAN30 (11745921_a_at) / RFU CMKLR1 (11741424_a_at) / Fold change /veh CMKLR1 (11741424_a_at) / RFU LOC101060620 /// MAPK8IP1 (11723275_at) / Fold change /veh LOC101060620 /// MAPK8IP1 (11723275_at) / RFU SPTSSB (11747773_x_at) / Fold change /veh SPTSSB (11747773_x_at) / RFU PRSS12 (11739890_at) / Fold change /veh PRSS12 (11739890_at) / RFU BIN1 (11741810_x_at) / Fold change /veh BIN1 (11741810_x_at) / RFU WNT11 (11732464_a_at) / Fold change /veh WNT11 (11732464_a_at) / RFU C10orf10 (11716521_a_at) / Fold change /veh C10orf10 (11716521_a_at) / RFU C5orf56 (11738089_at) / Fold change /veh C5orf56 (11738089_at) / RFU CYB561 (11721691_x_at) / Fold change /veh CYB561 (11721691_x_at) / RFU ANKRD19P (11752326_a_at) / Fold change /veh ANKRD19P (11752326_a_at) / RFU OR2T12 /// OR2T33 /// OR2T8 (11738714_s_at) / Fold change /veh OR2T12 /// OR2T33 /// OR2T8 (11738714_s_at) / RFU VCAN (11748164_a_at) / Fold change /veh VCAN (11748164_a_at) / RFU JSRP1 (11732532_at) / Fold change /veh JSRP1 (11732532_at) / RFU KRTAP10-11 (11738290_x_at) / Fold change /veh KRTAP10-11 (11738290_x_at) / RFU MYO3A (11730013_a_at) / Fold change /veh MYO3A (11730013_a_at) / RFU EBF3 (11725865_a_at) / Fold change /veh EBF3 (11725865_a_at) / RFU CAMK2N1 (11719241_x_at) / Fold change /veh CAMK2N1 (11719241_x_at) / RFU C5orf56 (11738088_a_at) / Fold change /veh C5orf56 (11738088_a_at) / RFU OLFML3 (11715873_a_at) / Fold change /veh OLFML3 (11715873_a_at) / RFU LOC100653217 /// NTM (11731650_a_at) / Fold change /veh LOC100653217 /// NTM (11731650_a_at) / RFU MAPK11 (11762145_a_at) / Fold change /veh MAPK11 (11762145_a_at) / RFU FIZ1 (11724087_x_at) / Fold change /veh FIZ1 (11724087_x_at) / RFU OASL (11726364_x_at) / Fold change /veh OASL (11726364_x_at) / RFU SOX15 (11748057_x_at) / Fold change /veh SOX15 (11748057_x_at) / RFU CD79A (11719716_a_at) / Fold change /veh CD79A (11719716_a_at) / RFU HIST1H1D (11736915_at) / Fold change /veh HIST1H1D (11736915_at) / RFU CASKIN2 (11723855_a_at) / Fold change /veh CASKIN2 (11723855_a_at) / RFU LOC730098 (11760151_x_at) / Fold change /veh LOC730098 (11760151_x_at) / RFU OR4N2 (11742367_at) / Fold change /veh OR4N2 (11742367_at) / RFU PRRT2 (11749266_a_at) / Fold change /veh PRRT2 (11749266_a_at) / RFU SNX32 (11753110_a_at) / Fold change /veh SNX32 (11753110_a_at) / RFU CDHR5 (11726645_a_at) / Fold change /veh CDHR5 (11726645_a_at) / RFU RCAN1 (11760418_a_at) / Fold change /veh RCAN1 (11760418_a_at) / RFU FAM167A (11723789_a_at) / Fold change /veh FAM167A (11723789_a_at) / RFU FAM26E (11764081_at) / Fold change /veh FAM26E (11764081_at) / RFU ISYNA1 (11749810_s_at) / Fold change /veh ISYNA1 (11749810_s_at) / RFU ACY1 (11761880_at) / Fold change /veh ACY1 (11761880_at) / RFU 11764098_at / Fold change /veh 11764098_at / RFU SAMD14 (11745864_x_at) / Fold change /veh SAMD14 (11745864_x_at) / RFU NPB (11741838_a_at) / Fold change /veh NPB (11741838_a_at) / RFU TMPRSS6 (11731388_a_at) / Fold change /veh TMPRSS6 (11731388_a_at) / RFU KRTAP10-2 (11738614_at) / Fold change /veh KRTAP10-2 (11738614_at) / RFU ARHGAP8 /// PRR5-ARHGAP8 (11727945_x_at) / Fold change /veh ARHGAP8 /// PRR5-ARHGAP8 (11727945_x_at) / RFU KRTAP5-7 /// NADSYN1 (11734609_at) / Fold change /veh KRTAP5-7 /// NADSYN1 (11734609_at) / RFU RASL12 (11751679_a_at) / Fold change /veh RASL12 (11751679_a_at) / RFU CDKN2B (11736163_a_at) / Fold change /veh CDKN2B (11736163_a_at) / RFU PRF1 (11729649_at) / Fold change /veh PRF1 (11729649_at) / RFU, ZNF638 /// ZNF638-IT1 / Fold change vs veh, ZNF638 /// ZNF638-IT1 / RFU, PANK3 / Fold change vs veh, PANK3 / RFU, SH3YL1 / Fold change vs veh, SH3YL1 / RFU, ZEB2 / Fold change vs veh, ZEB2 / RFU, NRIP1 / Fold change vs veh, NRIP1 / RFU, PTTG1IP / Fold change vs veh, PTTG1IP / RFU, CAPN2 / Fold change vs veh, CAPN2 / RFU, MED14 / Fold change vs veh, MED14 / RFU, SNORA58 / Fold change vs veh, SNORA58 / RFU, C1orf63 / Fold change vs veh, C1orf63 / RFU, LRRFIP1 / Fold change vs veh, LRRFIP1 / RFU, NDUFAF7 / Fold change vs veh, NDUFAF7 / RFU, SLC12A2 / Fold change vs veh, SLC12A2 / RFU, IBTK / Fold change vs veh, IBTK / RFU, ESF1 / Fold change vs veh, ESF1 / Fold change vs veh, TMEM50B / RFU, TAOK1 / Fold change vs veh, TAOK1 / RFU, ACBD3 / Fold change vs veh, ACBD3 / RFU, TMA16 / Fold change vs veh, TMA16 / RFU, RWDD3 / Fold change vs veh, RWDD3 / RFU, BCAT1 / Fold change vs veh, BCAT1 / RFU, EDEM3 / Fold change vs veh, EDEM3 / RFU, TMEM33 / Fold change vs veh, TMEM33 / RFU, WDR75 / Fold change vs veh, WDR75 / RFU, AHCTF1 / Fold change vs veh, AHCTF1 / RFU, TFRC / Fold change vs veh, TFRC / RFU, ZDHHC17 / Fold change vs veh, ZDHHC17 / RFU, NOM1 / Fold change vs veh, NOM1 / RFU, ARL8B / Fold change vs veh, ARL8B / RFU, ZBTB11 / Fold change vs veh, ZBTB11 / RFU, TAMM41 / Fold change vs veh, TAMM41 / RFU, KIAA1704 /// LOC100996395 / Fold change vs veh, KIAA1704 /// LOC100996395 / RFU, ING1 / Fold change vs veh, ING1 / RFU, TRMT61B / Fold change vs veh, TRMT61B / RFU, FUBP3 / Fold change vs veh, FUBP3 / RFU, TP53 / Fold change vs veh, TP53 / RFU, TNKS2 / Fold change vs veh, TNKS2 / RFU, ZFP14 / Fold change vs veh, ZFP14 / RFU, ACTR2 / Fold change vs veh, ACTR2 / RFU, PPP3R1 / Fold change vs veh, PPP3R1 / RFU, PIK3R1 / Fold change vs veh, PIK3R1 / RFU, HNRNPA1 / Fold change vs veh, HNRNPA1 / RFU, RNF170 / Fold change vs veh, RNF170 / RFU, ZNF28 / Fold change vs veh, ZNF28 / RFU, RNGTT / Fold change vs veh, RNGTT / RFU, OGT / Fold change vs veh, OGT / RFU, BRD1 / Fold change vs veh, BRD1 / RFU, MARS / Fold change vs veh, MARS / RFU, ZNF655 / Fold change vs veh, ZNF655 / RFU, FAHD1 / Fold change vs veh, FAHD1 / RFU, BDP1 / Fold change vs veh, BDP1 / RFU, LRRCC1 / Fold change vs veh, LRRCC1 / RFU, ARID1A / Fold change vs veh, ARID1A / RFU, ZNF146 / Fold change vs veh, ZNF146 / RFU, ZNF330 / Fold change vs veh, ZNF330 / RFU, GPN3 / Fold change vs veh, GPN3 / RFU, C9orf123 / Fold change vs veh, C9orf123 / RFU, N4BP2L2 / Fold change vs veh, N4BP2L2 / RFU, ARFIP1 / Fold change vs veh, ARFIP1 / RFU, FAM179B / Fold change vs veh, FAM179B / RFU, BCL10 / Fold change vs veh, BCL10 / RFU, UHRF1BP1L / Fold change vs veh, UHRF1BP1L / RFU, BET1 / Fold change vs veh, BET1 / RFU, CNOT2 / Fold change vs veh, CNOT2 / RFU, ZNF268 / Fold change vs veh, ZNF268 / Fold change vs veh, ZNF507 / RFU, DGCR2 / Fold change vs veh, DGCR2 / RFU, WDSUB1 / Fold change vs veh, WDSUB1 / Fold change vs veh, HSP90B1 /// MIR3652 / RFU, ADSS / Fold change vs veh, ADSS / RFU, GK / Fold change vs veh, GK / RFU, ZNF148 / Fold change vs veh, ZNF148 / RFU, TAF9 / Fold change vs veh, TAF9 / RFU, SLC1A5 / Fold change vs veh, SLC1A5 / RFU, SLMO2 / Fold change vs veh, SLMO2 / RFU, ABCC4 / Fold change vs veh, ABCC4 / RFU, LOC101060439 /// RAP1B / Fold change vs veh, LOC101060439 /// RAP1B / RFU, RFX7 / Fold change vs veh, RFX7 / RFU, GTPBP10 / Fold change vs veh, GTPBP10 / RFU, CNEP1R1 / Fold change vs veh, CNEP1R1 / RFU, BIVM-ERCC5 /// ERCC5 / Fold change vs veh, BIVM-ERCC5 /// ERCC5 / RFU, ILF3 / Fold change vs veh, ILF3 / RFU 11762660_at / Fold change /veh 11762660_at / RFU VCAN (11757783_s_at) / Fold change /veh VCAN (11757783_s_at) / RFU DDX43 (11728927_at) / Fold change /veh DDX43 (11728927_at) / RFU KRT8 (11758188_x_at) / Fold change /veh KRT8 (11758188_x_at) / RFU NKD1 (11759106_at) / Fold change /veh NKD1 (11759106_at) / RFU SRD5A1 (11742802_a_at) / Fold change /veh SRD5A1 (11742802_a_at) / RFU TPSAB1 /// TPSB2 (11721975_s_at) / Fold change /veh TPSAB1 /// TPSB2 (11721975_s_at) / RFU GSTM3 (11746129_a_at) / Fold change /veh GSTM3 (11746129_a_at) / RFU IL23R (11737362_x_at) / Fold change /veh IL23R (11737362_x_at) / RFU TMEM51 (11727254_a_at) / Fold change /veh TMEM51 (11727254_a_at) / RFU PIWIL2 (11732686_x_at) / Fold change /veh PIWIL2 (11732686_x_at) / RFU ORM1 (11744905_x_at) / Fold change /veh ORM1 (11744905_x_at) / RFU CCDC152 (11743942_at) / Fold change /veh CCDC152 (11743942_at) / RFU ECM1 (11717891_a_at) / Fold change /veh ECM1 (11717891_a_at) / RFU IL23R (11748794_a_at) / Fold change /veh IL23R (11748794_a_at) / RFU TNFAIP8L3 (11732012_x_at) / Fold change /veh TNFAIP8L3 (11732012_x_at) / RFU MBOAT4 (11741988_at) / Fold change /veh MBOAT4 (11741988_at) / RFU 11764193_at / Fold change /veh 11764193_at / RFU TMEM53 (11763286_at) / Fold change /veh TMEM53 (11763286_at) / RFU MAGEB2 (11727129_at) / Fold change /veh MAGEB2 (11727129_at) / RFU TMEM200A (11744735_a_at) / Fold change /veh TMEM200A (11744735_a_at) / RFU CCDC152 (11751479_a_at) / Fold change /veh CCDC152 (11751479_a_at) / RFU FAM211A (11726209_a_at) / Fold change /veh FAM211A (11726209_a_at) / RFU RGS16 (11746705_a_at) / Fold change /veh RGS16 (11746705_a_at) / RFU VCAN (11755009_s_at) / Fold change /veh VCAN (11755009_s_at) / RFU RHOB (11743442_s_at) / Fold change /veh RHOB (11743442_s_at) / RFU RGS16 (11720943_a_at) / Fold change /veh RGS16 (11720943_a_at) / RFU RGS16 (11720944_at) / Fold change /veh RGS16 (11720944_at) / RFU, VPS4B / Fold change vs veh, VPS4B / RFU, CREB1 / Fold change vs veh, CREB1 / RFU, DNAJC13 / Fold change vs veh, DNAJC13 / RFU, GNAQ / Fold change vs veh, GNAQ / RFU, CDK5R1 / Fold change vs veh, CDK5R1 / RFU, ZRANB3 / Fold change vs veh, ZRANB3 / RFU, CUL4A / Fold change vs veh, CUL4A / RFU, CCNY / Fold change vs veh, CCNY / RFU, UFL1 / Fold change vs veh, UFL1 / RFU, COG3 / Fold change vs veh, COG3 / RFU, DIAPH2 / Fold change vs veh, DIAPH2 / RFU, SKA2 / Fold change vs veh, SKA2 / RFU, AFF3 / Fold change vs veh, AFF3 / RFU, LMF1 / Fold change vs veh, LMF1 / RFU, IPO11 / Fold change vs veh, IPO11 / RFU, DFFB / Fold change vs veh, DFFB / RFU, FOXP1 / Fold change vs veh, FOXP1 / RFU, CARD8 / Fold change vs veh, CARD8 / RFU, STRN3 / Fold change vs veh, STRN3 / RFU, ADK / Fold change vs veh, ADK / RFU, RASSF2 / Fold change vs veh, RASSF2 / RFU, WIPF1 / Fold change vs veh, WIPF1 / RFU, LARP1B / Fold change vs veh, LARP1B / RFU, RASA1 / Fold change vs veh, RASA1 / RFU, RB1 / Fold change vs veh, RB1 / RFU, PPFIA1 / Fold change vs veh, PPFIA1 / RFU, MAT2A / Fold change vs veh, MAT2A / RFU, CCT5 / Fold change vs veh, CCT5 / RFU, WDR92 / Fold change vs veh, WDR92 / RFU, CUX1 / Fold change vs veh, CUX1 / RFU, TTC7A / Fold change vs veh, TTC7A / RFU, TMEM135 / Fold change vs veh, TMEM135 / RFU, DEPTOR / Fold change vs veh, DEPTOR / RFU, CPM / Fold change vs veh, CPM / RFU, DNAJB6 / Fold change vs veh, DNAJB6 / RFU, CACNA2D3 / Fold change vs veh, CACNA2D3 / RFU, DTX4 / Fold change vs veh, DTX4 / RFU, TFCP2 / Fold change vs veh, TFCP2 / RFU, GMCL1 /// GMCL1P1 / Fold change vs veh, GMCL1 /// GMCL1P1 / RFU, AEBP2 / Fold change vs veh, AEBP2 / RFU, SNHG1 /// SNORD22 /// SNORD25 /// SNORD26 /// SNORD27 /// SNORD28 /// SNORD29 /// SNORD31 / Fold change vs veh, SNHG1 /// SNORD22 /// SNORD25 /// SNORD26 /// SNORD27 /// SNORD28 /// SNORD29 /// SNORD31 / Fold change (Aza/veh), C12orf56 (ProbeSet 11735607_a_at) / Fold change (ACY-1035/veh), C12orf56 (ProbeSet 11735607_a_at) / Fold change (Aza/veh), FGFR1OP (ProbeSet 11751329_s_at) / Fold change (ACY-1035/veh), FGFR1OP (ProbeSet 11751329_s_at) / Fold change (Aza/veh), VPS36 (ProbeSet 11739960_a_at) / Fold change (ACY-1035/veh), VPS36 (ProbeSet 11739960_a_at) / RFU SYPL1 (11715823_x_at) / Fold change /veh SYPL1 (11715823_x_at) / RFU IGFBP7 (11715501_s_at) / Fold change /veh IGFBP7 (11715501_s_at) / RFU REEP3 (11722064_at) / Fold change /veh REEP3 (11722064_at) / RFU IGLL1 (11728026_x_at) / Fold change /veh IGLL1 (11728026_x_at): dose or concentration left out as unconfirmed
# Settings: MV-4-11 cells, 48 hours
structure (smiles),measurement,value
Nc1ncn([C@@H]2O[C@H](CO)[C@@H](O)[C@H]2O)c(=O)n1 [azacitidine],RFU CMKLR1 (11741424_a_at),16.54 RFU
